Laboratory results as given in patent US9073900B2, “Dihydroquinone derivatives of piperidine and piperazine” (KING FAHD UNIVERSITY OF PETROLEUM AND MINERALS, priority 2013, dated 2015).

A melting point of 134 to 135 °C was found for `O=C1NCc2ccc(N3CCN(Cc4ccc(-c5ccccc5)cc4)CC3)cc2N1` [Compound 5a, 7-(4-(biphenyl-4-ylmethyl)piperazin-1-yl)-3,4-dihydroquinazolin-2(1H)-one] in this work.
A melting point of 220 to 221 °C was found for `O=C1NCc2ccc(N3CCN(Cc4ccc(-c5ccc(F)cc5)cc4)CC3)cc2N1` [Compound 5b, 7-(4-((4′-fluorobiphenyl-4-yl)methyl)piperazin-1-yl)-3,4-dihydroquinazolin-2(1H)-one] in this work.
A melting point of 180 to 181 °C was found for `O=C1NCc2ccc(N3CCN(Cc4cncc(-c5ccc(F)cc5)c4)CC3)cc2N1` [Compound 5d, 7-(4-((5-(4-fluorophenyl)pyridin-3-yl)methyl)piperazin-1-yl)-3,4-dihydroquinazolin-2(1H)-one] in this work.
A melting point of 185 to 186 °C was found for `O=C1NCc2ccc(N3CCN(Cc4cncc(C5=CCCC5)c4)CC3)cc2N1` [Compound 5f, 7-(4((5-cyclopentenylpyridin-3-yl)methyl)piperazin-1-yl)-3,4-dihydroquinazolin-2(1H)-one] in this work.
A melting point of 160 to 161 °C was found for `O=C1NCc2ccc(C3CCN(Cc4ccc(-c5ccc(F)cc5)cc4)CC3)cc2N1` [Compound 6b, 7-(1-((4′-fluorobiphenyl-4-yl)methyl)piperidin-4-yl)-3,4-dihydroquinazolin-2(1H)-one] in this work.
A melting point of 166 to 167 °C was found for `O=C1NCc2ccc(C3CCN(Cc4cncc(C5=CCCC5)c4)CC3)cc2N1` [Compound 6f, 7-(1-((5-cyclopentenylpyridin-3-yl)methyl)piperidin-4-yl)-3,4-dihydroquinazolin-2(1H)-one] in this work.
